Assay results: ChEMBL document CHEMBL5226326, “Discovery of 1-Benzoyl 4-Phenoxypiperidines as Small-Molecule Inhibitors of the β-Catenin/B-Cell Lymphoma 9 Protein-Protein Interaction” (J Med Chem, 2021)

Assays:
[1] = target: T1, Catenin beta-1/Cadherin-1 (Homo sapiens, UniProt P35222); assay: Inhibition of full length beta-catenin (1 to 686 residues) (unknown origin) expressed in Escherichia coli BL21 (DE3)/N-terminal biotinylated human E-cadherin (824 to 877 residues) protein-protein interaction incubated for 2 hr by fluorescence anisotropy binding assay
T1 sequence (P35222 whole entry): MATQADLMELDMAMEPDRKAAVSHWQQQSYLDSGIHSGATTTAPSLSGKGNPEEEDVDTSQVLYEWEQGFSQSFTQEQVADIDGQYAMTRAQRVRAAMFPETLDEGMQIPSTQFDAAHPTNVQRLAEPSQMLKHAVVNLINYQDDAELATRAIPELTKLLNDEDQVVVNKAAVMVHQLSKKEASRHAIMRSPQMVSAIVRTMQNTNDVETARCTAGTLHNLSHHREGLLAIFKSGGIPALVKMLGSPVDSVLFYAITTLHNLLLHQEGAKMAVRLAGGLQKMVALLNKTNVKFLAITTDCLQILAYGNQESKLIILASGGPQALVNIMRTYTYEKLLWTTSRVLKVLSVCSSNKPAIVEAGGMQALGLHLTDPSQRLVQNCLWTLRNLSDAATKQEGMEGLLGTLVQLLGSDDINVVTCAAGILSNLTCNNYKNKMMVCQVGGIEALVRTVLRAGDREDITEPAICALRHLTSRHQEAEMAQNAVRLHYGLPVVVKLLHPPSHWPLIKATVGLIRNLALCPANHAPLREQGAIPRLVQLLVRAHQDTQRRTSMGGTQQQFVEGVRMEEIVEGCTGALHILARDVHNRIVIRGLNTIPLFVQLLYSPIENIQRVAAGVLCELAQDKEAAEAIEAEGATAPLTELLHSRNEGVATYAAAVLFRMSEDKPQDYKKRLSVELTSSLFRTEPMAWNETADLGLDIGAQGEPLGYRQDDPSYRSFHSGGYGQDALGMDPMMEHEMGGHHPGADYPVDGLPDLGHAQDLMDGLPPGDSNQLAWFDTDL
T1 sequence (P12830 whole entry): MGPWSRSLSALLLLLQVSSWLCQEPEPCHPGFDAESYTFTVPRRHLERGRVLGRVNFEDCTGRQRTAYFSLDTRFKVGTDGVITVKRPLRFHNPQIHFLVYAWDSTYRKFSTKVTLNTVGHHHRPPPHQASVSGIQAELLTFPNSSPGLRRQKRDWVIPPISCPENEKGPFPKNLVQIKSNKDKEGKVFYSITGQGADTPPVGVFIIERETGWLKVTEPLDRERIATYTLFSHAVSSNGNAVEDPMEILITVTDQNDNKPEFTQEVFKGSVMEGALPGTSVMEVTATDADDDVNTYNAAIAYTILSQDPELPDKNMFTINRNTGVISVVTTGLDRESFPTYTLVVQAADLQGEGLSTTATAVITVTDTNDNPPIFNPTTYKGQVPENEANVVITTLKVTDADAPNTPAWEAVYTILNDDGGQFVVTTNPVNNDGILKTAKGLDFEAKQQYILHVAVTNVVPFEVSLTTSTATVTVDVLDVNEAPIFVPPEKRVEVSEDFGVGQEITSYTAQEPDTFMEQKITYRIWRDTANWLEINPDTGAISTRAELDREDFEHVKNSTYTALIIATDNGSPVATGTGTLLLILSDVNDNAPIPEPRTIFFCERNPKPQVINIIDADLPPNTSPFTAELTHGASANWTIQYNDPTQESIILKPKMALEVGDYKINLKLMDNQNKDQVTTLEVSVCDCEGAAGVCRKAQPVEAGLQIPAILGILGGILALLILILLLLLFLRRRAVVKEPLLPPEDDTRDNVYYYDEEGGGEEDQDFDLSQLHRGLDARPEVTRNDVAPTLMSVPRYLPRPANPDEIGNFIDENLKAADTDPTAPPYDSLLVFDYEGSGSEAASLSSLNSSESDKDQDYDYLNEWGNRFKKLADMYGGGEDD

MDA-MB-231 = assay: Antiproliferative activity against beta-catenin signalling overexpressing human MDA-MB-231 cells assessed as reduction in cell growth incubated for 72 hrs by MTS assay; type: functional, cell-based; details: MDA-MB-231, 72 h
[2] = Drug uptake in human MDA-MB-231 cells at 2 uM incubated at 37 degree C measured after 6 hrs by HPLC analysis; type: ADME, cell-based; details: mda-mb-231, 6 h
[3] = target: T1, Catenin beta-1/Cadherin-1; assay: Inhibition of full length beta-catenin (1 to 686 residues) (unknown origin) expressed in Escherichia coli BL21 (DE3)/N-terminal biotinylated human E-cadherin (824 to 877 residues) protein-protein interaction assessed as inhibition constant incubated for 2 hr by Alphascreen assay
[4] = Inhibition of Wnt/beta-catenin D145A/E155A mutant transactivation signalling in human HEK293 cells transfected with TOPFlash reporter gene incubated for 24 hrs by TOPFlash luciferase assay; type: cell-based; details: HEK293, 24 h
[5] = target: T1, Catenin beta-1/Cadherin-1; assay: Inhibition of full length beta-catenin (1 to 686 residues) (unknown origin) expressed in Escherichia coli BL21 (DE3)/N-terminal biotinylated human E-cadherin (824 to 877 residues) protein-protein interaction incubated for 2 hr by Alphascreen assay
[6] = Inhibition of full length beta-catenin D145A mutant/N-terminal biotinylated human BCL9 HD2 (350 to 375 residues) protein-protein interaction in human SW480 cells incubated for 1 hr by Alphascreen assay; type: cell-based
[7] = Inhibition of Wnt/beta-catenin transactivation signalling in human SW480 cells transfected with renilla luciferase and TOPFlash reporter gene incubated for 24 hrs by dual-luciferase assay; type: cell-based; details: SW480, 24 h

## CC(C)(C)C1CCC(c2cc(C(=O)N3CCC(Oc4cc(N5CCNCC5)ccc4C#N)CC3)ccc2O[C@H]2CCNC2)CC1.Cl.Cl (mixture of isomers; cis)
[1]
  Kd: 67 µM
MDA-MB-231
  IC50: 4.1 µM
[2]
  Drug uptake: 88 µM
[3]
  Ki: 19 µM
[4]
  IC50: 24 µM
[5]
  Kd: 80 µM
[6]
  Ki: 6.9 µM
[7]
  IC50: 2600 nM
